Experimental findings from patent US11649245B2, “Cyclopropylamine compound as LSD1 inhibitor and use thereof” (HELIOEAST PHARMACEUTICAL CO., LTD., priority 2018, dated 2023) are described below.

Structures are written as SMILES. Structures can show the parent of a compound that is named as a salt.

The IC50 is the concentration that gives 50% inhibition. Read a high IC50 as weaker potency in that assay. By bioavailability is commonly meant dose-corrected exposure relative to a reference, in per cent.

The target of data set [1] is T1, hERG potassium ion channel (Homo sapiens, UniProt Q12809).
T1 construct: expressed in transfected cells; host or cells: CHO-hERG cells
Briefly: Inhibition test for hERG potassium ion channel (automatic patch-clamp, CHO-hERG cells). It counts as cell-based. The following applies: Qpatch, highest test concentration 40 μM. As for the experimental part:
Experimental purpose: to detect the effect of the embodiments to be tested on the potassium ion channel of hERG by using the fully automatic patch-clamp method.
6.1.1 CHO-hERG cells were cultured in a 175 cm^2 culture flask, after the cell density was increased to 60-80%, the culture medium was removed, the cells were washed once with 7 mL PBS (Phosphate Buffered Saline), and then 3 mL digestive fluid was added for digestion.
6.1.2 After the digestion was complete, 7 mL of culture medium was added for neutralization, then the mixture was centrifuged, the supernatant was aspirated, and then 5 mL of culture medium was added for resuspention to ensure that the cell density was 2-5×10^6/mL.
The single-cell high-impedance sealing and the whole-cell mode formation process were all automatically completed by the Qpatch instrument of the Shanghai Institute of Materia Medica, Chinese Academy of Sciences. After the whole-cell recording mode was obtained, the cells were clamped at −80 millivolts. […] The data were recorded for 2 minutes, then extracellular fluid was administrated, and then the data were recorded for 5 minutes. […]
The experimental data were analyzed by XLFit software.
(Block of hERG is tested as a sign of cardiac risk.)

Data set [2] is described as follows: In vivo pharmacokinetics in CD-1 mice. Particulars: male CD-1 mice. As for the experimental part: CD-1 mice (male, 7-9 weeks old, Shanghai Slac)
The rodent pharmacokinetic characteristics after intravenous injection and oral administration of the compounds were tested by standard protocols, in the experiment, the candidate compounds were formulated into clear solutions and administrated to mice via a single intravenous injection and oral administration. The vehicle for intravenous injection and oral administration was a mixed solution of 10% of dimethyl sulfoxide and 90% of 10% hydroxypropyl β cyclodextrin. This project used four male CD-1 mice, two mice were administered intravenously, with a dose of 1 mg/kg, and plasma samples were collected at 0 hour (before administration) and 0.0833, 0.25, 0.5, 1, 2, 4, 8, 24 hours after administration. The other two mice were orally administered by gavage, with a dose of 2 mg/kg, plasma samples were collected at 0 hour (before administration) and 0.25, 0.5, 1, 2, 4, 8, 24 hours after administration, whole blood samples were collected within 24 hours, which were centrifuged at 3000 g for 15 minutes, and the supernatants were separated to obtain plasma samples, 4 times volume of acetonitrile solutions containing internal standard were added to precipitate the protein, the mixtures were centrifuged to obtain the supernatants, the supernatants were added with water of equal volume and centrifuged again to take the supernatant for injection, and the blood drug concentration was quantitatively analyzed by the LC-MS/MS analysis method, and pharmacokinetic parameters were calculated, such as max concentration (Cmax), clearance (CL), half-life (T1/2), volumes of distribution (Vdss), the area under the plasma concentration-time curve (AUC0-last), bioavailability (F) etc.

The subject of data set [3] is NCI-H1417 cells. In words: Antiproliferation activity on NCI-H1417 cells (CellTiter-Glo, 10 days). The following applies: incubated for 10 days. Format: cell-based, human. As for the experimental part: Experimental purpose: to detect the antiproliferation activity of the compounds on NCI-H1417 cells.
Experimental materials: RPMI 1640 culture medium, fetal bovine serum, Promega CellTiter-Glo reagent. NCI-H1417 cell line purchased from ATCC. Envision multi-label reader (PerkinElmer).
Experimental method: the compounds were dissolved to 10 mM, then the compounds were diluted 5 times with DMSO in a compound plate, the compounds were diluted 3-fold with Bravo from a starting concentration of 2 mM to the 10th concentration, 250 nL of the solutions were transferred to the upper and lower duplicate wells on a blank 384 cell plate by Echo transfer plate, cell suspension of per well/1000 cells/50 μL was added to the transferred 250 nL DMSO/compound, the compounds were diluted 200-fold, i.e., the initial action concentration was 10 μM. The cell plate was placed in a carbon dioxide incubator and incubated for 10 days. 25 μL of Promega CellTiter-Glo reagent was added to each well on the cell plate and was shaken at room temperature for 10 minutes to stabilize the luminescence signal. Readings were performed by PerkinElmer Envision multi-label analyzer.
Data analysis: the equation (Max-Ratio)/(Max-Min)*100% was used to convert the original data into the inhibition rate, the value of IC50 can be obtained by curve fitting of four-parameters (the 205 mode in XLFITS, iDBS).
(Cellular ATP, detected with luciferase, serves as a proxy for viable cell number.)

For data set [4], the system named is MV-4-11 cells. In words: Antiproliferation activity on MV-4-11 cells (CellTiter-Glo, 6 days). It counts as cell-based. The following applies: incubated for 6 days. The source says: Experimental purpose: to detect the antiproliferation activity of the compound to be tested on MV-4-11 cells.
Experimental materials: IMDM culture medium, fetal bovine serum, penicillin/streptomycin antibiotics purchased from Wisent. CellTiter-Glo (chemiluminescent cell viability assay reagent) reagents purchased from Promega. MV-4-11 cell line was purchased from Nanjing Cobioer Co., Ltd. Nivo Multi-Marker Analyzer (PerkinElmer).
Experimental method: MV-4-11 cells were planted in a white 96-well plate, 80 μL of cell suspension per well, which contained 6000 MV-4-11 cells. The cell plate was placed in a carbon dioxide incubator for overnight culture.
The compounds to be tested were diluted 5-fold with a pipet until the 8th concentration, i.e., diluted from 2 mM to 25.6 nM, double duplicate well experiment was set. 78 μL of the culture medium was added to an intermediate plate, and then 2 μL per well of the serially diluted compounds were transferred to the corresponding positions on the intermediate plate, after mixing, 20 μL per well was transferred to the cell plate. The cell plate was incubated in a carbon dioxide incubator for 6 days. Another cell plate was prepared and the signal value on the day of dosing was read as the maximum value (Max value in the equation below) to participate in the data analysis. 25 μL of the chemiluminescent cell viability assay reagent was added to each well of this cell plate, which was incubated at room temperature for 10 minutes to stabilize the luminescence signal. The multi-label analyzer was used for reading.
Data analysis: the equation (Sample-Min)/(Max-Min)*100% was used to convert the original data into the inhibition rate, the IC50 value can be obtained by curve fitting of four-parameters (“log(inhibitor) vs. response—Variable slope” mode in GraphPad Prism)).

T1 sequence (Q12809 whole entry): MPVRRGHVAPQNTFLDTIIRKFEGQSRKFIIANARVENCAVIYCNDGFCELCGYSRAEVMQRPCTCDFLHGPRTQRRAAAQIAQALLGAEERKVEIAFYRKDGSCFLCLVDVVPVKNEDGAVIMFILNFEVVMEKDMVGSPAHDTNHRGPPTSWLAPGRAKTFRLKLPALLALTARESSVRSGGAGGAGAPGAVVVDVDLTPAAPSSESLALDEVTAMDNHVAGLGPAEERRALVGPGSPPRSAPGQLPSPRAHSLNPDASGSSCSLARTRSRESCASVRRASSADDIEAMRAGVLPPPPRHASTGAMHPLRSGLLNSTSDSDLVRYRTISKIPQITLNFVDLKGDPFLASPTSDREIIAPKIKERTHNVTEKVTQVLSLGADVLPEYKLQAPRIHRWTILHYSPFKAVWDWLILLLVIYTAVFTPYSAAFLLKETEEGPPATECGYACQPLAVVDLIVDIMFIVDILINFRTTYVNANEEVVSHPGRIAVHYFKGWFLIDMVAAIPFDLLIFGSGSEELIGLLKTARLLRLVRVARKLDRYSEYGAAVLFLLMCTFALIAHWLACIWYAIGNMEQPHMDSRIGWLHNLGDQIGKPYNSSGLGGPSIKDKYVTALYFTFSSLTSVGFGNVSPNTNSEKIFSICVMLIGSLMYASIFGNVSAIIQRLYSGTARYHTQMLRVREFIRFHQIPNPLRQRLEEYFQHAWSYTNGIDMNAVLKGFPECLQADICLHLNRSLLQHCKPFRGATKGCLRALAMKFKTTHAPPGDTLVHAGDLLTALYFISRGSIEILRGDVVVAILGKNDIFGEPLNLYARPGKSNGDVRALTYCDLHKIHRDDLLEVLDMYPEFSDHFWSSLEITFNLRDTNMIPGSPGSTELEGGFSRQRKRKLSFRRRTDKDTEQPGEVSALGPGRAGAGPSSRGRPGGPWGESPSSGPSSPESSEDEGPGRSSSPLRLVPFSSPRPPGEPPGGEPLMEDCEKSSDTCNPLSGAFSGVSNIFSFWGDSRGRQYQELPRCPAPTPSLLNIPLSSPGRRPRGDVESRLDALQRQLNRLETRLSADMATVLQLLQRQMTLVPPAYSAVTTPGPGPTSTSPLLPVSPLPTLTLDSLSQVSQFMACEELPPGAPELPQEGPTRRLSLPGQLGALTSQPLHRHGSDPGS

`O=C(O)c1ccc(CN2CCC3(CC2)CC(N[C@@H]2C[C@H]2c2ccccc2)CO3)cc1` (stereo partly drawn) [Hydrochloride of the compound 6]: the IC50 is > 40000 nM in data set [1], 9.11 nM in data set [3] and 3.21 nM in data set [4]. Further, in data set [2] (IV 1 mg/kg, 1 mg/kg), the “Half-life T1/2 (IV)” value is listed as 1.54 h. In data set [2] (male, CD-1, mouse, plasma, iv, 1 mg/kg, study doses 1 mg/kg intravenous, 2 mg/kg oral, read-out: Clearance CL), the clearance came to 40.2 mL/min/kg. In addition, the Vd in data set [2] (male, CD-1, mouse, plasma, iv, 1 mg/kg, study doses 1 mg/kg intravenous, 2 mg/kg oral, read-out: Volumes of distribution Vdss) turned out to be 1.19 L/kg. Besides, the Cmax in data set [2] (male, CD-1, mouse, plasma, study doses 1 mg/kg intravenous, 2 mg/kg oral, route not given, read-out: Max concentration Cmax) worked out at 718 nM. In data set [2] (male, CD-1, mouse, plasma, po, 2 mg/kg, PO 2 mg/kg, read-out: The area under the plasma concentration-time curve AUC0-last PO), the AUC(0-t) was 0.691 µM·h. Besides, the bioavailability in data set [2] (male, CD-1, mouse, plasma, po, 2 mg/kg, oral 2 mg/kg vs intravenous 1 mg/kg, read-out: Bioavailability F) came to 33.2%.
